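96-well plates; 48 h exposure; 5 concentrations. Endpoints by linear interpolation between flanking doses. Not reached: highest tested concentration assigned. GI50 is the concentration that inhibits growth by half.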 Active and inactive are the calls of the source. Rule as the data show it: active = GI50 up to about 1.1 µM and inactive = higher.
Assays:
Experiment in all cases: NCI anticancer screen, dose series, 48 h
SW-620 = test system: SW-620
M14 = test system: M14
NCI-H460 = test system: NCI-H460
SK-OV-3 = test system: SK-OV-3
SNB-19 = test system: SNB-19
SN12C = test system: SN12C
LXFL 529 = test system: LXFL 529
HCC 2998 = test system: HCC 2998
HT-29 = test system: HT-29
NCI-H522 = test system: NCI-H522
CAKI-1 = test system: CAKI-1
NCI-H226 = test system: NCI-H226
UO-31 = test system: UO-31
HL-60 = test system: HL-60
A498 = test system: A498
SF-295 = test system: SF-295
SNB-78 = test system: SNB-78
OVCAR-3 = test system: OVCAR-3
UACC-257 = test system: UACC-257
RXF 393 = test system: RXF 393
U-251 = test system: U-251
SK-MEL-5 = test system: SK-MEL-5
A549 = test system: A549
SF-539 = test system: SF-539
TK-10 = test system: TK-10
HCT-15 = test system: HCT-15
OVCAR-5 = test system: OVCAR-5
UACC-62 = test system: UACC-62
HOP-62 = test system: HOP-62
EKVX = test system: EKVX
MOLT-4 = test system: MOLT-4
786-0 = test system: 786-0
HCT-116 = test system: HCT-116
OVCAR-8 = test system: OVCAR-8
K562 = test system: K562
SF-268 = test system: SF-268
NCI-H23 = test system: NCI-H23
IGROV-1 = test system: IGROV-1
DMS-273 = test system: DMS-273
HOP-92 = test system: HOP-92
SK-MEL-28 = test system: SK-MEL-28
SK-MEL-2 = test system: SK-MEL-2
LOX IMVI = test system: LOX IMVI
ACHN = test system: ACHN
SR = test system: SR
CCRF-CEM = test system: CCRF-CEM
KM12 = test system: KM12
COLO 205 = test system: COLO 205
DMS-114 = test system: DMS-114
NCI/ADR-RES = test system: NCI/ADR-RES
DLD-1 = test system: DLD-1
Malme-3M = test system: Malme-3M
MCF7 = test system: MCF7
KM-20L2 = test system: KM-20L2
M19-MEL = test system: M19-MEL
XF498 = test system: XF498
RPMI-8226 = test system: RPMI-8226
OVCAR-4 = test system: OVCAR-4
SNB-75 = test system: SNB-75

Measured: GI50

C/N=C(/NC)N(C)c1nc(=[N+](C)C)ss1.[O-][Cl+3]([O-])([O-])[O-]
inactive: SW-620 > 100 µM | M14 > 100 µM | NCI-H460 > 100 µM | SK-OV-3 > 100 µM | SNB-19 > 100 µM | SN12C > 100 µM | LXFL 529 > 100 µM | HCC 2998 > 100 µM | HT-29 > 100 µM | NCI-H522 56.4 µM | CAKI-1 16.3 µM | NCI-H226 59.3 µM | UO-31 > 100 µM | HL-60 46 µM | A498 39.4 µM | SF-295 > 100 µM | SNB-78 82.8 µM | OVCAR-3 > 100 µM | UACC-257 > 100 µM | RXF 393 > 100 µM | U-251 > 100 µM | SK-MEL-5 > 100 µM | A549 > 100 µM | SF-539 > 100 µM | TK-10 > 100 µM | OVCAR-5 > 100 µM | UACC-62 > 100 µM | HOP-62 > 100 µM | EKVX > 100 µM | MOLT-4 39.3 µM | 786-0 > 100 µM | HCT-116 62.1 µM | OVCAR-8 > 100 µM | K562 31.2 µM | SF-268 > 100 µM | NCI-H23 74.1 µM | IGROV-1 > 100 µM | DMS-273 36.2 µM | HOP-92 75 µM | SK-MEL-28 > 100 µM | SK-MEL-2 > 100 µM | LOX IMVI 78.9 µM | ACHN > 100 µM | SR 55.5 µM | CCRF-CEM 61.9 µM | KM12 > 100 µM
92.7 µM: HCT-15

COC(=O)C1C(O)C(C)C(O)C(C)/C=C\C=C(C)C(=O)Nc2c(C)c(OC(C)=O)c3c(c2O)C(=O)C(C)=C2OCOC(=C23)C(C)=CC(C)(O)C(O)C(C)C1O (stereo not given)
inactive: SW-620 25 µM | SK-OV-3 > 75 µM | SNB-19 > 75 µM | HT-29 21.7 µM | CAKI-1 33.7 µM | NCI-H226 61.7 µM | UO-31 72.6 µM | HL-60 18.7 µM | A498 63.1 µM | SF-295 62.5 µM | COLO 205 17.4 µM | SNB-78 41.4 µM | DMS-114 19.7 µM | OVCAR-3 42.4 µM | UACC-257 32.1 µM | U-251 60.4 µM | SK-MEL-5 40 µM | SF-539 > 60.5 µM | OVCAR-5 > 75 µM | HOP-62 > 75 µM | NCI/ADR-RES 56.9 µM | DLD-1 18.3 µM | HCT-116 26.4 µM | OVCAR-8 28.6 µM | Malme-3M 45.4 µM | SF-268 43.9 µM | IGROV-1 > 75 µM | DMS-273 52.6 µM | HOP-92 60.1 µM | SK-MEL-28 26.6 µM | SK-MEL-2 18.1 µM | MCF7 20.1 µM | KM-20L2 34 µM

O=S1(=O)OCCOS(=O)(=O)C1(I)I
inactive: SW-620 16.8 µM | M14 20 µM | M19-MEL 17.7 µM | SK-OV-3 21.9 µM | SNB-19 26.5 µM | SN12C 17.5 µM | LXFL 529 11 µM | HCC 2998 20.8 µM | HT-29 24.8 µM | NCI-H522 18.7 µM | CAKI-1 17.3 µM | NCI-H226 15.3 µM | XF498 18 µM | UO-31 18.7 µM | HL-60 21.1 µM | A498 16.7 µM | SF-295 26.3 µM | COLO 205 16.9 µM | SNB-78 23.2 µM | DMS-114 18 µM | OVCAR-3 24 µM | UACC-257 22.6 µM | SK-MEL-5 15.5 µM | A549 26.2 µM | SF-539 21.7 µM | TK-10 27.3 µM | UACC-62 14.7 µM | HOP-62 19.6 µM | EKVX 27.5 µM | DLD-1 16.9 µM | MOLT-4 15.9 µM | RPMI-8226 9.12 µM | 786-0 20.1 µM | HCT-116 16.3 µM | OVCAR-4 19.7 µM | OVCAR-8 20.7 µM | K562 29.5 µM | Malme-3M 20.4 µM | SF-268 20.4 µM | NCI-H23 11.1 µM | IGROV-1 25.3 µM | DMS-273 20.6 µM | HOP-92 13.7 µM | SNB-75 18.1 µM | SK-MEL-28 19.9 µM | SK-MEL-2 22 µM | LOX IMVI 16.2 µM | SR 12.3 µM | CCRF-CEM 10.9 µM | KM12 18.9 µM

Reference: ChEMBL document CHEMBL1201862, “PubChem BioAssay data set” (2004)
